Results: US20100226888A1, “Ethanol Enhances the Complete Replication of Hepatitis C Virus: the Role of Acetaldehyde” (priority 2009, published 2010)
Like-named read-outs stand apart in the source and are kept apart here.

Key:
JFH1 HCV (genotype 2a) = assay type: cell-based, hepatitis C virus; details: for intracellular JFH1 HCV RNA levels: 48 hrs
[1] = test system: SgJFH1-Luc subgenomic HCV replicon (genotype 2a); assay type: cell-based, hepatitis C virus
From the text: (§1) The genotype 2a HCV constructs, pJFH1 (produces infectious virus particles), replicative-null pJFH1-GND, and subgenomic pSgJFH1-Luc (contains a luciferase reporter gene), are described elsewhere (23, 24). Subgenomic HCV replicons are bicistronic constructs that express only the nonstructural proteins of HCV under the control of encephalocarditis virus IRES; neomycin resistance or firefly luciferase gene is under the control of the HCV IRES (15, 22, 24). These replicons support HCV RNA replication but no virus is formed in cell culture. Huh7 cell clones (SgPC2 cells, Clone B) supporting continuous replication of subgenomic HCV replicon of genotype 1b (Con1 sequence) were also used (17, 22).
After various treatments, SgJFH1 Luc RNA-transfected cells were lysed with 1× Reporter Lysis Buffer, and the luciferase activity was determined using Luciferase Reporter Assay Kit (Promega Corp.) (24). Luciferase activities were normalized by total protein content, determined with bicinchoninic acid (BCA) assay kit from Pierce.
To test whether the JFH1 RNA replication was also affected by ethanol, Huh7 cells were transfected with JFH1 SgJFH1-Luc RNA and exposed the cells to ethanol for 48 hours. Then, HCV replication was monitored by measuring the firefly luciferase activity (24).

intracellular GSH = assay: Intracellular GSH content in Huh7 cells; assay type: cell-based, human
From the text: Hepatic ethanol, particularly CYP2E1-mediated, metabolism is known to generate ROS (31). […] First, to examine the effects of endogenously generated ROS, L-buthionine S,R-sulfoximine (BSO) was used. BSO depletes glutathione (GSH), a major endogenous antioxidant, by inhibiting its de novo synthesis and therefore, would amplify the effects of endogenous ROS, generated during normal cellular metabolism and in response to HCV (5). BSO decreases intracellular GSH content by approximately 80±12% in Huh7 cells (P<0.05).

JFH1 virus = assay: HCV RNA in naive Huh7 or Huh7.5 cells inoculated with JFH1 virus-containing medium; assay type: cell-based, hepatitis C virus
Experimental: (§2) The in vitro transcription, and transfection of HCV RNA, and Huh7 human hepatoma cell culture were performed as previously described (17). For experiments involving stable clones, cells were cultured in medium supplemented with 0.4-0.5 mg/mL G418, and G418 was removed from cell culture medium one day prior to cell treatments, which were performed as described in Results. For the in vitro infectivity assays, 2 ml of the extracellular medium from JFH1 RNA-transfected cells was used to inoculate naive Huh7 or Huh7.5 cells with 3 ml of fresh medium, as described (23, 25). Treatments were initiated 24 hours after infection and the cells were harvested after another 24 or 48 hrs.
The total intracellular RNA was obtained from cells using Trizol (Invitrogen). To obtain extracellular HCV RNA, cell culture medium samples were first treated with RNase A (100 μg/ml) for 30 min at room temperature, then RNA was extracted using Trizol LS and glycogen as a carrier. HCV RNA was quantified by qRT-PCR as described (17, 23). For JFH1, the primer sequences were 5′ […] 3′ (nt 146 to 164; forward, SEQ ID NO.: 1), and 5′ […] 3′ (nt 277 to 295; reverse, SEQ ID NO.: 2), and the sequence of the fluorogenic probe, labeled with 6-FAM and TAMRA (Biosearch Technologies, Inc.), was 5′ […] 3′ (nt 168 to 188, SEQ ID NO.: 3). The primer and probe sequences for qRT-PCR analysis of Con1 RNA's were described previously (17). Standard curves were generated using in vitro-transcribed HCV RNA's. Intracellular HCV RNA levels were normalized by 18 S rRNA or GAPDH mRNA.

[2] = test system: Con1 subgenomic HCV replicon (genotype 1b); assay: Con1 subgenomic replicon HCV RNA in SgPC2 cells (Northern blot); assay type: cell-based, hepatitis C virus; details: 0.1 to 1% ethanol, 24 hrs
From the text: as §1, §2
(§3) Intracellular RNA extraction and northern blots were carried out, as described (16, 17). DNA probes were prepared from nucleotides (“nt.”) 4128-8273 or 358-2816 of JFH1, generated with ScaI and ApaL I, respectively, or nt. 3669 to 6016 of the Con1 subgenomic replicons. Images were quantified by densitometry, using Optiquant Cyclone 4.00 (Perkin Elmer), and data were normalized by glyceraldehyde 3-phosphate dehydrogenase (GAPDH) mRNA content.

[3] = test system: Con1 HCV subgenomic replicon; assay: Con1 subgenomic replicon HCV RNA in Clone B cells; assay type: cell-based, hepatitis C virus; details: 24 hrs, response compared with SgPC2 cells
From the text: as §1, §3

[4] = test system: HCV RNA replication complex (Con1 strain); details: cells treated with ethanol for 5 hrs
Experimental: (§4) In vitro replication assay was carried out according to the modified method of Ali et al., as previously described (16, 17, 26). Briefly, cytoplasmic lysates were prepared, and the replication was allowed to proceed for 1 hr at 30° C. in the presence of α-^32P-CTP and actinomycin D. Then, RNA products were analyzed on a 1% formaldehyde agarose gel, which was subsequently analyzed, using Optiquant Cyclone 4.00 (Perkin Elmer).
(§5) JFH1-transfected cells were exposed to ethanol for 5 hrs and then, the cytoplasmic lysates, containing the HCV replication complex, were isolated. Then, the in vitro RNA replication assay was performed in the presence of α-^32P-labeled CTP and actinomycin D, as previously described (17). JFH1 GND cell lysates were used as a negative control.

[5] = test system: HCV RNA replication complex (JFH1)
Experimental: as §4, §5

HCV IRES = details: ethanol, data not shown
Experimental: as §5

CYP2E1 = details: daily 0.2% (v/v) ethanol for 48 hrs, JFH1 cells
From the text: Cells were sonicated in Laemmli buffer, and proteins were separated on 7-20% Tris-glycine gel (Invitrogen) or 12.5% SDS-polyacrylamide gel and western blotted, using mouse monoclonal anti-NS5A (Biodesign, Inc.), goat anti-actin, and the corresponding horseradish peroxidase-conjugated secondary antibodies (Santa Cruz Laboratories) with an ECL Plus kit (Amersham Biosciences). Images were obtained and quantified, using 152000R (Kodak).

NADH/NAD+ ratio = assay: NADH/NAD+ enzymatic NADH recycling assay; assay type: cell-based, human
Experimental: NADH and NAD+ levels were determined by enzymatic NADH recycling assay, using the NAD+/NADH Quantification Kit from Biovision, per manufacturers recommendations with an optional filtration step that used Microcon YM-10 (Millipore). […] The data were normalized by total protein content, determined with BCA assay kit from Pierce.

[6] = test system: Huh7 human hepatoma cells; details: data not shown
Experimental: NADH and NAD+ levels were determined by enzymatic NADH recycling assay, using the NAD+/NADH Quantification Kit from Biovision, per manufacturers recommendations with an optional filtration step that used Microcon YM-10 (Millipore). Total ATP content was measured using Somatic Cell ATP Assay Kit from Sigma-Aldrich. The data were normalized by total protein content, determined with BCA assay kit from Pierce.
To examine whether ethanol increased the complete replication of HCV, positive-sense genomic JFH1 RNA was produced by in vitro transcription, using T7 RNA polymerase, and transfected into Huh7 human hepatoma cells. Then, the transfected cells were exposed to 0-1.0% (v/v; 0-172 mM) ethanol once daily with a change of medium each day for 48 hrs. Then, the cells and the cell culture medium were harvested and analyzed for intracellular and RNase A-resistant extracellular HCV RNA's by a combination of Northern blots and qRT-PCR.

[7] = test system: intracellular cholesterol; assay: Total intracellular cholesterol content in SgPC2 cells; assay type: cell-based, human; details: 24 h
Experimental: FIG. 7. […] SgPC2 cells were treated for 24 h with (A and B) 0.2% ethanol, 5 μM acetaldehyde, 0.2% isopropyl alcohol, 2 mM acetone, 5 μM acetate±30 min pretreatment with (A) 5 μM lovastatin, 5 μM fluvastatin, (B) 5 μg/ml TOFA, 5 μg/ml cerulenin, or with (C) 2 mM β-mercaptopropionic acid (β-MPA). Then, HCV RNA levels were monitored by Northern blot and quantified by densitometry (n=3). D, SgPC2 cells, treated for 24 h with ethanol, acetaldehyde, acetone, and acetate±lovastatin, were monitored for cholesterol levels (n=3). Lovastatin was activated, as described, before use (29). *, indicates statistically significant difference for indicated sample sizes (p<0.05)

SMILES: CCCCS(=N)(=O)CCC(N)C(=O)O [BSO, L-buthionine S,R-sulfoximine]
- extracellular JFH1 RNA levels (JFH1 HCV (genotype 2a); BSO, 24 hrs): significantly decreased
- intracellular JFH1 RNA levels (JFH1 HCV (genotype 2a); BSO, 24 hrs): significantly decreased
- subgenomic JFH1 RNA replication ([1]; BSO alone or with 0.25 mU/mL GO + glucose, 24 hr): suppressed
- decrease of intracellular GSH content (intracellular GSH): approximately 80±12%

SMILES: CCO [ethanol]
- intracellular JFH1 HCV RNA levels (JFH1 HCV (genotype 2a); 0.2% (v/v) ethanol once daily): 237±40 % of untreated controls
- intracellular JFH1 HCV RNA levels (JFH1 HCV (genotype 2a); 0.5% (v/v) ethanol once daily): 305±61 % of untreated controls
- extracellular HCV RNA (virus secretion) (JFH1 HCV (genotype 2a); ethanol treatment 48 hrs, RNase A-resistant RNA in medium): significantly elevated
- HCV replication in RIG-1-defective Huh7.5 cells (JFH1 virus; FIG. 5, also data not shown): increase
- HCV RNA in Huh7 cells infected with cell culture-generated JFH1 virion (JFH1 virus; ethanol treatment 48 hrs): increased
- luciferase activity (JFH1 RNA genome replication) [1]: increased
- genotype 1b HCV RNA [2]: significant increases
- HCV RNA in Clone B cells [3]: responded similarly
- in vitro replication rate of Con1 strain [4]: accelerated
- rate of HCV RNA replication in vitro ([5]; cells exposed to ethanol for 5 hrs): significantly increased
- rate of HCV RNA replication in vitro ([5]; cells exposed to ethanol for ½, 1, or 3 hrs, data not shown): no significant increase
- HCV IRES activity (HCV IRES): did not increase
- CYP2E1 expression (CYP2E1): enhanced
- NADH/NAD+ ratio (NADH/NAD+ ratio; SgPC2 cells, 3 h, 0.2% ethanol, 5 μM acetaldehyde, 5 μM acetate, 0.2% isopropyl alcohol, 2 mM acetone, 25 mM tert-butanol): increases
- increase of NADH/NAD+ ratio (NADH/NAD+ ratio; ethanol, within 3 hrs): 76.2±6.1%
- overall ATP levels [6]: not significantly perturbed
- cytotoxicity ([6]; ethanol concentrations used, cell morphology and cellular ATP content): did not induce any cytotoxicity
- total intracellular cholesterol content [7]: increased
